US20180346731A1, “Formation of Stable Pyranoanthocyanins, and Uses Thereof as Sources of Natural Color” (Ohio State Innovation Foundation, priority 2017, published 2018)

How the values were obtained:
Assay type in all cases: physicochemical
[1] = Colorimetry (CIEL*c*h*, ΔE) of pigment solutions with ascorbic acid
Description: (§1) The semi-purified chokeberry extract, the isolated cyanidin-3-galactoside, and the purified 5-carboxypyranocyanidin-3-galactoside were diluted in pH 3.0 citrate buffer (0.1 M adjusted with HCl) until an absorbance of 1.0 at their respective λmax was reached. Levels of AA of 250, 500, and 1000 mg/L were added using a concentrated ascorbic acid stock solution, and a control consisting of each pigment with the absence of AA was maintained. The control consisted of the pigment in the buffer in the absence of AA. An additional test was performed with the same model juice using hydrogen peroxide, a known degradation product of AA. To determine if AA bleaching was due to formation of H2O2, direct addition of it was investigated. In place of added AA, a 62.2 μL of a 0.3% peroxide solution was added to match the molar equivalency of the 500 mg/L AA level, which was 2.84 mM.
(§2) All samples were brought to the same final volume with additional citrate buffer. […] Samples were stored in the dark at 25° C. in an incubator. UV-Vis spectrophotometry, colorimetry, and HPLC analyses were conducted over a 5 day period following the addition of ascorbic acid or hydrogen peroxide. UV-Vis spectral data was collected every hour for the first 8 hours, and then at 12 hr, and daily from that point on for 5 days. […] HPLC analyses were conducted on days 0, 1, 3, and 5. All treatments were run in triplicate.
Using UV-Vis spectral data (5 nm steps, 380-700 nm) in combination with software written for color conversion, absorbance data was translated to CIE-L*c*h*. The calculations for CIE-L*c*h* implemented by the software used CIE relative spectral power distribution for a D65 standard illuminants and 10° observer angle function. Color data is reported as L* (lightness), c* (chroma), and h* (hue angle).
Total color changes (ΔE) were calculated as the color change from day 0 to 5 for each respective treatment, and presented in Table 4.
Numbers are means of 3 replications, followed by (standard deviations). ΔE: total color change from day 0 (control) to day 5.

[2] = HPLC monitoring of pigment peaks with ascorbic acid
Description: Prior to experimentation, pigments were evaluated for purity by using an analytical HPLC only different from the previously listed one by the use of different pumps (LC-20AD, Shimadzu, Md., US). Purified pigments were filtered using the Phenex RC 0.45 μm membranes. A binary system with 1 mL/min flow rate was used: solvent A: 4.5% formic acid in HPLC grade water and solvent B: HPLC grade acetonitrile. The gradient began with an isocratic flow of 6% solvent B for 17 minutes (elution of primary anthocyanins), increasing to 15% solvent B by 45 minutes (elution of primary pyranoanthocyanins), and to 40% solvent B by 50 minutes. A 10 μL injection volume was loaded onto a Phenomenex Kinetix 5 μm EVO C18 100 A. 150×4.6 mm column and Phenomenex Ultra UHPLC EVO C18 guard cartridge attached.
as §1, §2
Prepared solutions were monitored to determine the formation of potential degradation products or profile changes. Using the analytical HPLC system and conditions described, chromatograms were monitored with the max plot (260-700 nm), 490 nm (near λmax of 5-carboxypyranocyanidin-3-galactoside), and 520 nm (near ma of cyanidin-3-galactoside). A max plot of 470-520 nm was later added to standardize changes in the AUC for all three pigments and their degradation products.

[3] = Colorimetry (CIEL*c*h*, ΔE2000) of anthocyanin isolates treated with pyruvic acid, 31 days storage; conditions: day 0 vs day 31, Delta E2000
Description: Prior to dilution, the concentrations of the isolated pigment extracts were determined by the pH differential method for subsequent dilution to known concentrations. The isolates were then diluted to 500 μM (expressed as Cyanidin-3-glucoside equivalents) in pH 2.5 deionized water (previously adjusted with HCl) which contained 0.1% potassium sorbate (w/v) and 0.1% sodium benzoate (w/v) to function as preservative agents during storage. A pH of 2.5 was selected as a compromise of several variables: the flavylium form was predominant, the effect of pKh was minimized, and it is a relevant pH for wines. It has been reported that the pKh's of cy3 gal, cy3xylgal, and cy3xylglugal ranges from 3.01 to 3.26. Working at pH 2.5 largely avoided the effect of different equilibrium forms while also maintaining a pH that is similar to that of wines where these compounds are commonly formed. Control samples of each isolate were prepared and contained no pyruvic acid. For treatments containing pyruvic acid, a previously diluted pyruvic acid standard (pyruvic acid in the same pH 2.5 water containing preservatives) was added to obtain concentrations 100× the molar ratio of anthocyanins (50 mM of pyruvic acid). All treatments were brought to the same final volume by the addition of more pH 2.5 water. Samples were filtered through a 0.2 μm membrane into 1.5 mL glass HPLC vials. Vials were capped and stored in an incubator in the dark at 25° C. for a 31 day duration (Fisher Scientific, Waltham, Mass., U.S.). All treatments were prepared in triplicate.
Colorimetric data of samples was calculated from spectra of samples collected from the plate reader with ColorBySpectra. Absorbance data was obtained and conversion to color values was achieved using the following settings: regular transmission, D65 illuminant, and 10° observer angle. Values reported are in the CIEL*c*h* scale. After storage for 31 days, the mathematical differences in color (ΔE) were calculated according to the CIE-L*a*b* Delta E2000 equation. Colorimetric data of the samples containing pyruvic acid was used to correlate with pyranoanthocyanins formation. Spectral absorbance data of the peaks of the anthocyanins and their respective pyranoanthocyanins were also collected from the PDA during uHPLC analyses and converted to colorimetric data using ColorBySpectra under the settings described above. The spectra was obtained from the time of elution of the target compound and then standardized to an absorbance of 1.0 at λvis-max.

[4] = 1000 mg/L AA, listed as cyanidin-3-galactoside

Q: Which results are given for OC[C@H]1O[C@@H](Oc2cc3c(O)cc(O)cc3[o+]c2-c2ccc(O)c(O)c2)[C@H](O)[C@@H](O)[C@H]1O [Cyanidin-3-galactoside, cyanidin-3-galactoside]?
A: Chroma Day 0 ([1]; 250 mg/L AA): 50.8 (0.2); Chroma Day 5 ([1]; 250 mg/L AA): 13.9 (0.7); Hue Angle Day 0 ([1]; 250 mg/L AA): 18.7 (0.1) °; Hue Angle Day 5 ([1]; 250 mg/L AA): 21.9 (1.2) °; Lightness Day 0 ([1]; 250 mg/L AA): 77.5 ( ).2); Lightness Day 5 ([1]; 250 mg/L AA): 93.2 (0.3); ΔE Over 5 days ([1]; 250 mg/L AA): 19.3 (0.3); Chroma Day 0 ([1]; 500 mg/L AA): 51.8 (0.0); Chroma Day 5 ([1]; 500 mg/L AA): 10.5 (0.4); Hue Angle Day 0 ([1]; 500 mg/L AA): 18.8 (0.0) °; Hue Angle Day 5 ([1]; 500 mg/L AA): 51.1 (2.7) °; Lightness Day 0 ([1]; 500 mg/L AA): 77.0 (0.1); Lightness Day 5 ([1]; 500 mg/L AA): 94.4 (0.6); ΔE Over 5 days ([1]; 500 mg/L AA): 23.6 (0.2); Chroma Day 0 ([1]; 1000 mg/L AA): 50.9 (0.1); Chroma Day 5 ([1]; 1000 mg/L AA): 13.7 (1.8); Hue Angle Day 0 ([1]; 1000 mg/L AA): 18.7 (0.1) °; Hue Angle Day 5 ([1]; 1000 mg/L AA): 77.5 (4.5) °; Lightness Day 0 ([1]; 1000 mg/L AA): 77.2 (0.3); Lightness Day 5 ([1]; 1000 mg/L AA): 94.5 (0.7); ΔE Over 5 days ([1]; 1000 mg/L AA): 27.6 (0.7); L* after 48 hours ([1]; 1000 mg/L AA, 48 hours): 96.4; Hue Angle Day 0 [1, 4]: 18.7 °; Hue Angle Day 5 [1, 4]: 77.5 °; Lightness Day 0 [1, 4]: 77.2; ΔE Over 5 days [1, 4]: 27.6; Chroma Day 0 ([1]; Control, no AA): 51.2 (0.2); Chroma Day 5 ([1]; Control, no AA): 46.5 (2.1); Hue Angle Day 0 ([1]; Control, no AA): 18.6 (0.1) °; Hue Angle Day 5 ([1]; Control, no AA): 15.9 (1.0) °; Lightness Day 5 ([1]; Control, no AA): 79.4; ΔE Over 5 days ([1]; Control, no AA): 2.6 (1.1); Lightness Day 0 ([1]; Control, no AA, mean (SD), n=3): 77.3 (0.1); time until significant change in chroma as compared to the control ([1]; all levels of AA): 2 h; initial hue angle ([1]; day 0): 16.6 °; target peaks left after 1 day ([2]; 1000 mg/L AA, HPLC): 2%; reduction of pigment peak by day 1 ([2]; 1 g/L AA, HPLC AUC): 91%; reduction of pigment peak by day 5 ([2]; 1 g/L AA, HPLC AUC): > 99%; total color change (ΔE) [3]: 8.2
